Experiments:
[1] = tested on: cleaved PARP in MDA-MB-231 cells; experiment: PARP cleavage by Western blot; type: cell-based, human; conditions: 1-44 h, preliminary analysis
Protocol: The cells were treated with 50 μM IPA/NO-aspirin (blue) or 75 μM DEA/NO-aspirin (green), respectively at 37° C., and protein was collected at various time points (1-44 h). Lanes 1-6 (20 μg of protein): IPA/NO-aspirin at 1, 3, 6, 10, 20, 44 h; […]: DEA/NO-aspirin at 1, 6, 10, 20, 30, 44 h; Lane 15: control. Cleaved PARP levels at different time points were quantified by Western blot with respect to control, which was treated as 100%. HPRT was used as the loading control.
Since a number of chemotherapies and radiation therapy are based on inducing DNA damage in cancer cells, inhibition of PARP by HNO donors may increase the efficacy of these treatments. Furthermore, IPA/NO-aspirin is able to not only induce DNA damage but also to impede DNA repair.

MDA-MB-231 cells = experiment: Alkaline Comet assay of DNA damage; type: cell-based, human; conditions: 75 μM, 8 hours, 37° C.
Protocol: Tail length: mean±SEM, n≥150.
Autoxidation of both NO and HNO leads to species that are capable of damaging DNA. Conversion of NO to N2O3 can induce mutations through base deamination) while the product of the reaction of HNO with O2 can oxidize and cleave DNA. To investigate the possibility of RNS-induced DNA damage as a mechanism of cytotoxicity, the effect of the NONO-aspirin prodrugs was studied with the alkaline Comet assay in MDA-MB-231 cells. After 8 hours, the damage induced by treatment with 50 μM IPA/NO-aspirin was significant (FIG. 7A) and similar to the H2O2 positive control (FIG. 7C). […] This may be an important factor in the observed enhanced cytotoxicity of IPA/NO-aspirin. In particular, IPA/NO-aspirin is able to damage DNA (FIG. 7) including inducing double strand breaks, in a manner similar to radiation therapy and chemotherapies such as doxorubicin.

[2] = Prodrug decomposition in cells; type: in vitro ADME; conditions: A549 cells
[3] = Stability in phosphate buffer pH 7.4; type: physicochemical
Protocol: The newly synthesized HNO-releasing aspirin (IPA/NO-aspirin, 4) and NO-releasing aspirin (DEA/NO-aspirin, 8) were evaluated for the kinetic profile of NO and HNO release in buffer and cells.

HUVECs = experiment: Tube formation (angiogenesis) in Matrigel; type: cell-based, human; conditions: 12 hours, 1 and 10 μM, vs control
Protocol: Cells in Matrigel were treated with A) DMSO, B) 1 μM or C) 10 μM IPA/NO-aspirin, D) 1 μM or E) 10 μM DEA/NO-aspirin at 37° C., and the extent of tube formation was measured after 12 h using a microscope.
The impact of the NONO-aspirin prodrugs on tube formation in HUVECs after 12 hours treatment was examined as a measure of angiogenesis.

BCL-2 = BCL-2 expression; type: cell-based; conditions: FIG. 18
ER-α = ER-α levels (mRNA of ER1) in ER-α(−) cells; type: cell-based; conditions: FIG. 20
prostaglandin E2 (PGE2) = conditions: cited from earlier work

## CCN(CC)[N+]([O-])=NOCOC(=O)c1ccccc1OC(C)=O [DEA/NO-aspirin, O2-(Acetylsalicyloyloxymethyl)-1-(N,N-Diethylamino)-diazen-1-ium-1,2-diolate]
[1]; 75 μM
  level of cleaved PARP: relatively short-lived
MDA-MB-231 cells
  DNA damage (Comet assay): did not differ from the DMSO-treated negative control
[2]
  lifetime in cells relative to IPA/NO-aspirin: about three times longer-lived
[3]
  stability in buffer: relatively stable in phosphate buffer pH 7.4 for several hours
HUVECs
  angiogenesis (tube formation): reduced angiogenesis

## CC(=O)Oc1ccccc1C(=O)OCON=[N+]([O-])NC(C)C [IPA/NO-aspirin, O2-(Acetylsalicyloyloxymethyl)-1-(N-isopropylamino)-diazen-1-ium-1,2-diolate]
[1]; 50 μM
  level of cleaved PARP: increases the level of cleaved PARP in a longer-term fashion
BCL-2
  BCL-2 expression: inhibits the aspirin effect
ER-α
  ER-α levels: inhibit the aspirin effect
[2]
  time to complete decomposition in cells: approximately 3 hours
[3]
  stability in buffer: relatively stable in phosphate buffer pH 7.4 for several hours
Prostaglandin E2 (PGE2)
  level of PGE2: reduction in PGE2 levels
HUVECs
  angiogenesis (tube formation): reduced angiogenesis
